The results in this text go back to the NIST ThermoML archive (doi:10.1016/j.fluid.2009.10.015).

Each structure is given as a SMILES string. ± gives the expanded uncertainty stated by the source.

The conditions of data set [1]: Crystal; DTA.
The nature of data set [2]: Molar enthalpy of transition or fusion. To be noted: Crystal; DSC.

As to `CC(=O)c1ccc(C)c2ccccc12` [1-(4-methyl-1-naphthyl) ethanone], the Normal melting temperature in data set [1] came to 312.00 ± 4 °C. Moreover, in data set [2], the “Molar enthalpy of transition or fusion” value amounted to 14.5 ± 0.47 kJ/mol.
